Data reported in the supplement of paper PMC11451515.

Test system: NOMO1
Experiment: cell viability relative to DMSO control; higher = less cytotoxic
Settings: 48 h
Summary of the method: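 NOMO1 or SEM cells were plated at 500 cells/well and P12-Ichikawa cells at 1000 cells/well in 1536-well plates (5 μl), after each leukemia line had been adapted for at least four passages in each medium. Pin dosing delivered library compounds in DMSO at 11 threefold concentrations, 47 μM to 0.79 nM. CellTiter-Glo One luminescence was read after 48 h at 37°C. Viability is reported as a per-plate percentage of DMSO wells, with cell-free wells as background.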

[1] = HPLM + 10% dialyzed FBS, 0.000781 µM
[2] = HPLM + 10% dialyzed FBS, 0.00234 µM
[3] = HPLM + 10% dialyzed FBS, 0.00702 µM
[4] = HPLM + 10% dialyzed FBS, 0.0211 µM
[5] = HPLM + 10% dialyzed FBS, 0.0632 µM
[6] = HPLM + 10% dialyzed FBS, 0.19 µM
[7] = HPLM + 10% dialyzed FBS, 0.569 µM
[8] = HPLM + 10% dialyzed FBS, 1.71 µM
[9] = HPLM + 10% dialyzed FBS, 5.12 µM
[10] = HPLM + 10% dialyzed FBS, 15.4 µM
[11] = HPLM + 10% dialyzed FBS, 46.1 µM
[12] = RPMI 5 mM glucose + 10% FBS, 0.000781 µM
[13] = RPMI 5 mM glucose + 10% FBS, 0.00234 µM
[14] = RPMI 5 mM glucose + 10% FBS, 0.00702 µM
[15] = RPMI 5 mM glucose + 10% FBS, 0.0211 µM
[16] = RPMI 5 mM glucose + 10% FBS, 0.0632 µM
[17] = RPMI 5 mM glucose + 10% FBS, 0.19 µM
[18] = RPMI 5 mM glucose + 10% FBS, 0.569 µM
[19] = RPMI 5 mM glucose + 10% FBS, 1.71 µM
[20] = RPMI 5 mM glucose + 10% FBS, 5.12 µM
[21] = RPMI 5 mM glucose + 10% FBS, 15.4 µM
[22] = RPMI 5 mM glucose + 10% FBS, 46.1 µM
[23] = RPMI 5 mM glucose + 10% dialyzed FBS, 0.000781 µM
[24] = RPMI 5 mM glucose + 10% dialyzed FBS, 0.00234 µM
[25] = RPMI 5 mM glucose + 10% dialyzed FBS, 0.00702 µM
[26] = RPMI 5 mM glucose + 10% dialyzed FBS, 0.0211 µM
[27] = RPMI 5 mM glucose + 10% dialyzed FBS, 0.0632 µM
[28] = RPMI 5 mM glucose + 10% dialyzed FBS, 0.19 µM
[29] = RPMI 5 mM glucose + 10% dialyzed FBS, 0.569 µM
[30] = RPMI 5 mM glucose + 10% dialyzed FBS, 1.71 µM
[31] = RPMI 5 mM glucose + 10% dialyzed FBS, 5.12 µM
[32] = RPMI 5 mM glucose + 10% dialyzed FBS, 15.4 µM
[33] = RPMI 5 mM glucose + 10% dialyzed FBS, 46.1 µM

Compound: CCc1ccc(/C=C2/SC(=S)NC2=O)cc1
- cell viability [1]: 70.3%
- cell viability [2]: 79.1%
- cell viability [3]: 88%
- cell viability [4]: 86%
- cell viability [5]: 74.5%
- cell viability [6]: 74.2%
- cell viability [7]: 79.2%
- cell viability [8]: 79.7%
- cell viability [9]: 94.3%
- cell viability [10]: 51.3%
- cell viability [11]: 92.2%
- cell viability [12]: 75.7%
- cell viability [13]: 83.5%
- cell viability [14]: 81.8%
- cell viability [15]: 81.9%
- cell viability [16]: 87.2%
- cell viability [17]: 83.8%
- cell viability [18]: 88.1%
- cell viability [19]: 76.3%
- cell viability [20]: 93.4%
- cell viability [21]: 59.9%
- cell viability [22]: 75%
- cell viability [23]: 78.2%
- cell viability [24]: 71.1%
- cell viability [25]: 83.2%
- cell viability [26]: 81.4%
- cell viability [27]: 87.5%
- cell viability [28]: 73.4%
- cell viability [29]: 84.3%
- cell viability [30]: 82.1%
- cell viability [31]: 85.3%
- cell viability [32]: 48.6%
- cell viability [33]: 86.3%

Compound: Cc1ccnc2c1NC(=O)c1cccnc1N2C1CC1
- cell viability [1]: 102%
- cell viability [2]: 104%
- cell viability [3]: 98.7%
- cell viability [4]: 121%
- cell viability [5]: 112%
- cell viability [6]: 112%
- cell viability [7]: 113%
- cell viability [8]: 89.7%
- cell viability [9]: 55.3%
- cell viability [10]: 61.4%
- cell viability [11]: 35.8%
- cell viability [12]: 85.2%
- cell viability [13]: 107%
- cell viability [14]: 93.1%
- cell viability [15]: 100%
- cell viability [16]: 103%
- cell viability [17]: 118%
- cell viability [18]: 93.3%
- cell viability [19]: 84.1%
- cell viability [20]: 59.3%
- cell viability [21]: 68.1%
- cell viability [22]: 59.1%
- cell viability [23]: 94.8%
- cell viability [24]: 102%
- cell viability [25]: 110%
- cell viability [26]: 98.6%
- cell viability [27]: 113%
- cell viability [28]: 97.1%
- cell viability [29]: 110%
- cell viability [30]: 97.4%
- cell viability [31]: 52.7%
- cell viability [32]: 79.4%
- cell viability [33]: 79.4%

Compound: CCCCOc1c(C(=O)c2c(F)cc(C)cc2F)cnc2[nH]ncc12
- cell viability [1]: 95.9%
- cell viability [2]: 113%
- cell viability [3]: 107%
- cell viability [4]: 103%
- cell viability [5]: 103%
- cell viability [6]: 109%
- cell viability [7]: 103%
- cell viability [8]: 119%
- cell viability [9]: 89.1%
- cell viability [10]: 96.2%
- cell viability [11]: 68.9%
- cell viability [12]: 89.4%
- cell viability [13]: 98.2%
- cell viability [14]: 82.7%
- cell viability [15]: 96.7%
- cell viability [16]: 98.7%
- cell viability [17]: 94%
- cell viability [18]: 95.6%
- cell viability [19]: 93.6%
- cell viability [20]: 98.9%
- cell viability [21]: 90.3%
- cell viability [22]: 79.1%
- cell viability [23]: 97.6%
- cell viability [24]: 96.3%
- cell viability [25]: 100%
- cell viability [26]: 92.6%
- cell viability [27]: 92.7%
- cell viability [28]: 85.5%
- cell viability [29]: 83.1%
- cell viability [30]: 86.7%
- cell viability [31]: 70.6%
- cell viability [32]: 88.4%
- cell viability [33]: 84.3%

Compound: OCC(O)C(O)C(O)CO (stereo not drawn)
- cell viability [1]: 98.8%
- cell viability [2]: 88.8%
- cell viability [3]: 87.7%
- cell viability [4]: 104%
- cell viability [5]: 81.7%
- cell viability [6]: 92.4%
- cell viability [7]: 99%
- cell viability [8]: 86.3%
- cell viability [9]: 96.7%
- cell viability [10]: 70.2%
- cell viability [11]: 80%
- cell viability [12]: 84%
- cell viability [13]: 99.3%
- cell viability [14]: 92.6%
- cell viability [15]: 84.4%
- cell viability [16]: 89.9%
- cell viability [17]: 87.7%
- cell viability [18]: 84.9%
- cell viability [19]: 85.8%
- cell viability [20]: 82%
- cell viability [21]: 82.1%
- cell viability [22]: 80%
- cell viability [23]: 77.9%
- cell viability [24]: 86.8%
- cell viability [25]: 112%
- cell viability [26]: 96.2%
- cell viability [27]: 106%
- cell viability [28]: 106%
- cell viability [29]: 103%
- cell viability [30]: 84.9%
- cell viability [31]: 89%
- cell viability [32]: 72.5%
- cell viability [33]: 94.6%

Compound: CC(C)c1cc(C(C)C)c(CC(=O)N[S+](=O)([O-])Oc2c(C(C)C)cccc2C(C)C)c(C(C)C)c1
- cell viability [1]: 103%
- cell viability [2]: 110%
- cell viability [3]: 93.9%
- cell viability [4]: 114%
- cell viability [5]: 112%
- cell viability [6]: 88.6%
- cell viability [7]: 92.2%
- cell viability [8]: 98.8%
- cell viability [9]: 100%
- cell viability [10]: 92.5%
- cell viability [11]: 88.9%
- cell viability [12]: 96.3%
- cell viability [13]: 89.8%
- cell viability [14]: 88.6%
- cell viability [15]: 82.8%
- cell viability [16]: 94.8%
- cell viability [17]: 87.8%
- cell viability [18]: 105%
- cell viability [19]: 93%
- cell viability [20]: 98.3%
- cell viability [21]: 90.5%
- cell viability [22]: 86.9%
- cell viability [23]: 95.9%
- cell viability [24]: 89.4%
- cell viability [25]: 91.4%
- cell viability [26]: 89.7%
- cell viability [27]: 87.4%
- cell viability [28]: 91.4%
- cell viability [29]: 97%
- cell viability [30]: 84.5%
- cell viability [31]: 90.8%
- cell viability [32]: 87.9%
- cell viability [33]: 65.3%

Compound: CC[C@H]1OC(=O)[C@H](C)C(=O)[C@H](C)[C@@H](O[C@H]2O[C@H](C)C[C@H](N(C)C)[C@H]2O)[C@](C)(OC)C[C@@H](C)C(=O)[C@H](C)[C@H]2N(CCCCn3cnc(-c4cccnc4)c3)C(=O)O[C@]12C
- cell viability [12]: 127%
- cell viability [13]: 118%
- cell viability [14]: 118%
- cell viability [15]: 111%
- cell viability [16]: 115%
- cell viability [17]: 120%
- cell viability [18]: 104%
- cell viability [19]: 116%
- cell viability [20]: 118%
- cell viability [21]: 107%
- cell viability [22]: 103%
- cell viability [23]: 102%
- cell viability [24]: 121%
- cell viability [25]: 110%
- cell viability [26]: 109%
- cell viability [27]: 113%
- cell viability [28]: 104%
- cell viability [29]: 100%
- cell viability [30]: 98.8%
- cell viability [31]: 116%
- cell viability [32]: 107%
- cell viability [33]: 95.9%

Compound: Oc1nc(-c2ccc(C(F)(F)F)cc2)nc2c1CSCC2
- cell viability [1]: 125%
- cell viability [2]: 90.4%
- cell viability [3]: 96.4%
- cell viability [4]: 81.1%
- cell viability [5]: 98%
- cell viability [6]: 93.4%
- cell viability [7]: 111%
- cell viability [8]: 98.4%
- cell viability [9]: 118%
- cell viability [10]: 94%
- cell viability [11]: 100%
- cell viability [12]: 88.5%
- cell viability [13]: 88%
- cell viability [14]: 93.5%
- cell viability [15]: 91.8%
- cell viability [16]: 95.5%
- cell viability [17]: 97.9%
- cell viability [18]: 96.2%
- cell viability [19]: 87.6%
- cell viability [20]: 85.8%
- cell viability [21]: 104%
- cell viability [22]: 88.2%
- cell viability [23]: 92.6%
- cell viability [24]: 99.8%
- cell viability [25]: 105%
- cell viability [26]: 94.3%
- cell viability [27]: 98.1%
- cell viability [28]: 102%
- cell viability [29]: 91.8%
- cell viability [30]: 102%
- cell viability [31]: 98.4%
- cell viability [32]: 99.4%
- cell viability [33]: 90.4%

Compound: CCOC(=O)\C1=C\[C@]2(CC)CCCN3CCC4=C([C@H]23)[N]1C5=C4C=CC=C5
- cell viability [1]: 104%
- cell viability [2]: 118%
- cell viability [3]: 122%
- cell viability [4]: 124%
- cell viability [5]: 125%
- cell viability [6]: 126%
- cell viability [7]: 131%
- cell viability [8]: 123%
- cell viability [9]: 124%
- cell viability [10]: 126%
- cell viability [11]: 54.5%
- cell viability [12]: 95.3%
- cell viability [13]: 103%
- cell viability [14]: 113%
- cell viability [15]: 113%
- cell viability [16]: 123%
- cell viability [17]: 120%
- cell viability [18]: 135%
- cell viability [19]: 113%
- cell viability [20]: 102%
- cell viability [21]: 111%
- cell viability [22]: 57.7%
- cell viability [23]: 91.8%
- cell viability [24]: 105%
- cell viability [25]: 118%
- cell viability [26]: 122%
- cell viability [27]: 108%
- cell viability [28]: 113%
- cell viability [29]: 119%
- cell viability [30]: 110%
- cell viability [31]: 108%
- cell viability [32]: 105%
- cell viability [33]: 70.5%
